Results reported in patent US8703815B2, “Small molecules that covalently modify transthyretin” (The Scripps Research Institute, priority 2009, dated 2014).
“And” between values parts separate entries of the source, which are not always exact repeats. Identical values can stand only once. Like-named read-outs stand apart in the source and are kept apart here.

What was measured:
WT-TTR [1] = target: T1, WT-TTR (Homo sapiens, UniProt P02766); assay: Quantum yield measurement with WT-TTR; assay type: physicochemical; details: compound 7.2 μM
T1 construct: composed of 127-residue β-sheet-rich subunits; made in house; host or cells: E. coli
Description: (§1) The covalent TTR modifier A1 or A2 or the non-covalent TTR ligand B2 (15 μL of a 1.44 mM solution in DMSO, final concentration: 7.2 μM) was added to 3 mL of a solution of WT-TTR homotetramer (0.2 mg/mL, 3.6 μM) in 10 mM phosphate, 100 mM KCl and 1 mM EDTA (pH 7.0 phosphate buffer). The samples were vortexed, and incubated for 18 hours at 25° C. Quantum yields were measured by following the instructions at the web site: jobinyvon.com/usadivisions/Fluorescence/applications/quantumyieldstrad.pdf. Quinine bisulfate in 0.5 M H2SO4 was used as a reference for comparison (Φf=0.546). [Crosby et al., J. Phys. Chem. 1971, 75, 991-1024.]

[2] = Quantum yield measurement in buffer; assay type: physicochemical
Description: as §1

WT-TTR [3] = target: T1, WT-TTR; assay: Kinetics of the A2-TTR conjugation reaction (fluorescence); assay type: binding; details: A2 6 μM
Description: Because the one-chain, one-binding-site TTR tag being created is envisioned to be useful for doing pulse-chase studies in the secretory pathway of eukaryotic cells, the kinetics of WT-TTR modification by A2 in concentrated cell lysate was investigated. […] We added WT-TTR at a final concentration of 2 μM (tetramer) to the HeLa cell lysate (2 μg/μL total protein concentration) to which A2 (6 μM) was added. At 37° C., the conjugate formed with a t50 of 18 minutes, within experimental error of the t50 (19 minutes) of TTR (2 μM) conjugate formation with A2 (6 μM) in phosphate buffer (pH 7).
The covalent TTR modifier A2 (1 μL of 0.6 mM solution in DMSO, final concentration: 6 μM) was added to 90 μL of HeLa cell lysate (final protein concentration: 2 μg/μL) and 10 μL of WT-TTR (20 μM in pH 7.0 phosphate buffer, final concentration: 2 μM). The time-dependent fluorescence change of the conjugate derived from A2 was monitored utilizing a microplate spectrophotometer reader (Gemini SpectraMax®, Molecular Devices, Sunnyvale, Calif.) for 3 hours at 37° C. The fluorescence (λex=328 nm and λem=430 nm) was measured from the bottom of the plate without shaking.

human fibroblasts = assay: A2 treatment of human fibroblasts (no TTR); assay type: cell-based; details: A2 10 μM, 30 minutes
Source text: The confocal fluorescence observations are consistent with substantial evidence that the liver secretes the vast majority, if not all, of the TTR into the human bloodstream [Felding et al., Biochimica et Biophysica Acta 1982, 716, 446-9]. That TTR could be visualized in the secretory pathway addresses the sensitivity of A2-derived TTR fluorescent conjugate-based detection [Sekijima et al., Cell 2005, 121, 73-85].
Huh-7 cells or Gaucher's patient-derived fibroblasts (Coriell Cell Repositories, GM08760) were maintained in DMEM containing 10% FBS at 37° C. under 5% CO2. The cells were plated the day before compound treatment and imaging. Cells were washed twice with PBS and then treated with A2 (final concentration: 10 μM) for 30 minutes at 37° C. in a CO2 incubator. After two washes, cells were fixed at 25° C. for 15 minutes with 3.7% paraformaldehyde (w/v) in PBS and microscopic images were acquired as described above.

V30M-TTR = target: T2, V30M-TTR (Homo sapiens, UniProt P02766, V50M); assay: Acid-mediated V30M-TTR fibril formation assay (turbidity at 400 nm); assay type: biochemical; details: pH 4.4, 72 hours, 37° C.
T2 construct: composed of 127-residue β-sheet-rich subunits; made in house
Description: Compounds (5 μL of 1.44 mM solution in DMSO) were added to 495 μL of TTR (7.2 μM, in 10 mM sodium phosphate, 100 mM KCl, 1 mM EDTA, pH 7.0). The mixtures were vortexed and incubated (maintained) for 18 hours at 25° C. […] The solutions were vortexed to evenly distribute any precipitate, and turbidity was measured at 400 nm using a Hewlett Packard model 8453 UV-VIS Spectrophotometer.

WT-TTR [4] = target: T1, WT-TTR; assay: Acid-mediated WT-TTR fibril formation assay (turbidity at 400 nm); assay type: biochemical; details: for IC50: % fibril formation after 72 hours, read-out: IC50 (apparent), inhibition of WT-TTR amyloidogenesis
Description: The mixtures were vortexed and incubated (maintained) for 18 hours at 25° C.

Structure (SMILES)	fluorescence quantum yield in complex or conjugate with TTR (WT-TTR [1])	fluorescence quantum yield in buffer [2]	t50 of conjugate formation in phosphate buffer (pH 7) (WT-TTR [3]; TTR 2 μM) [minutes]	t50 of conjugate formation in HeLa cell lysate (WT-TTR [3]; WT-TTR 2 μM, lysate 2 μg/μL, 37° C.)	fluorescence in human fibroblasts (human fibroblasts)	% Fibril Formation 7.2 μM (V30M-TTR) (V30M-TTR; compound 7.2 μM) [%]	% Fibril Formation […] (V30M-TTR) (V30M-TTR; compound […]) [%]	IC50 (WT-TTR [4]; WT-TTR 3.6 μM) [nM]	IC50 (WT-TTR [4]; WT-TTR […]) [nM]	% Fibril Formation 7.2 μM (WT-TTR) (WT-TTR [4]; WT-TTR […], compound 7.2 μM, pH 4.4, 72 hours, 37° C.) [%]	% Fibril Formation […] (WT-TTR) (WT-TTR [4]; WT-TTR […], compound […], pH 4.4, 72 hours, 37° C.) [%]
Cc1cc(/C=C/c2cc(C(=O)Sc3ccc(F)cc3)cc(N(C)C)c2)cc(C)c1O [Compound A2, (E)-S-4-fluorophenyl 3-(dimethylamino)-5-(4-hydroxy-3,5-dimethylstyryl)-benzothioate]	0.27	0.00	19	18 min and 20 min	no significant fluorescence	–	–	–	–	–	–
Cc1cc(/C=C/c2cccc(C(=O)Sc3ccccc3)c2)cc(C)c1O [Compound 2, (E)-S-phenyl 3-(4-hydroxy-3,5-dimethylstyryl)benzothioate]	–	–	–	–	–	3	34	1960 to 2260	2000	2	16
